“Also recorded” adds a separate entry of the source. Read-outs that look alike come from different tables or passages of the source.

What is called IC50 is the midpoint of a concentration-inhibition curve. Low readings indicate inhibition by little substance, high ones a need for much substance. One may read the Kd as the equilibrium constant for the complex coming apart.

The target in one test is T1, MYCbHLHZip:MAXbHLHZip (Homo sapiens, UniProt P01106).
T1 construct: 6xHis (N); made in house; host or cells: E. coli BL21 (DE3), pET28a
T1 sequence (P01106 367-447 limits assumed): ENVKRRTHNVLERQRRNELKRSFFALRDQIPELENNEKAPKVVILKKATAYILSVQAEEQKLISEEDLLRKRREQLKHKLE
Briefly: SPR MYC:MAX heterodimer formation assay. The class given is binding. Particulars: 100 nM MYCbHLHZip over immobilized MAXbHLHZip. The method, then: The SPR method is a highly sensitive assay to determine the affinity between protein and ligand and to measure the kinetics of the interaction. In the SPR MYC:MAX interaction assay, MAXbHLHZip was covalently attached onto a sensor chip and MYCbHLHZip pre-mixed with compound was injected over the surface and thereafter allowed to dissociate.
The SPR experiments were performed at 25 °C using a Biacore T200 (GE Healthcare) instrument kindly provided by SciLifeLab Solna. An amino coupling procedure was used to immobilize protein on a CM5 sensor chip (GE Healthcare). Sensorgrams were generated by subtraction of the reference (blank immobilized) surface. All details will be described in Castell et al. (manuscript in preparation). In general, for the MYC:MAX interaction assay, 200–500 RU of MAXbHLHZip was immobilized and 100 nM MYCbHLHZip pre-incubated with compound in PBS supplemented with 0.05% Tween-20 and 1% DMSO was injected with a flow rate of 30 µl/min and allowed to dissociate. MAX was regenerated by injection of PBS buffer supplemented with Urea.

For the next test, the target named is T2, MYC bHLHZip (Homo sapiens, UniProt P01106).
T2 construct: 6xHis (N); made in house; host or cells: E. coli BL21 (DE3), pET28a; purified in denaturing conditions
T2 sequence (P01106 367-447 limits assumed): as above
The test can be described thus: SPR direct binding to immobilized MYC. The method, then:
Further, MYCMI-6 binding to MAX, MXD1 (MAD1) (Figs 4C and S5C and D), p53 (Fig. 4D), BSA (Suppl. Fig. S5E) and YFP (data not shown) were negligible. Binding to BCL-XL was only 10% of the theoretical maximum at 2 μM MYCMI-6 (Suppl. Fig. S5F).
(§1) The MYC SPR assay was carried out as described above with MYCbHLHZip immobilized to a level of 800–1000 RU. For kinetic binding experiments, a Langmuir 1:1 binding event was applied using the Biacore T200 Evaluation Software 2.0 (GE Healthcare) to determine association (ka) and dissociation (kd) constants of the compound and to calculate affinity (KD) by the formula; KD = kd/ka. Binding responses from equilibrium binding experiments were plotted against compound concentration and KD values were determined at 50% of the theoretical Rmax with the formula Rmax = (MW analyte/MW ligand) × immobilized ligand level on the chip (RU) × stoichiometry (1:1). Same coupling method described above was used to immobilize the control proteins. MAX was immobilized to approximately 2000 RU, MAD to 600 RU, BSA to 1000 RU, p53 to 3000 RU and BCL-XL, to 500 RU.

The target in a further test is MAX bHLHZip (Homo sapiens, UniProt P61244). Briefly: SPR binding to MAX. The method, then:
as §1

A further test relates to T3, p53 core protein.
T3 construct: Truncated p53 core protein was a kind gift from Klas Wiman; gift from Klas Wiman, CCK, Karolinska Institutet
Briefly: SPR binding to p53. The method, then:
as §1

For another test, the system named is YFP. The test can be described thus: SPR binding to YFP. Particulars: data not shown. Background: Surface plasmon resonance follows binding to a sensor surface in real time, without labels.
The test system of the next test is MYCN and MAX proteins. Briefly: Western blot of MYCN and MAX in SK-N-DZ and Kelly cells. The format is cell-based. Particulars: 2.5 µM, 17 hours. On the procedure:
These assays were performed essentially as described in[67],[68]. […] C) MST of labeled MYC (approximately 200 nM) titrated with MYCMI-6 as indicated. Data are shown as mean ± standard deviation of 5 biological repeats. Supplemental Figure S5. Characterization of the binding of MYCMI-6 and other MYC:MAX inhibitory compounds on MYC and different control proteins by surface plasmon resonance (SPR). All sensorgrams are reference surface subtracted. A) SPR assay of MYCMI-6 injected over immobilized MYC in an equilibrium binding experiment where the theoretical Rmax is 23 RU. B) SPR assay of KJ-Pyr-9 injected over immobilized MYC. Theoretical Rmax is 29 RU. C) Sensorgram of MAX SPR assay. MYCMI-6 was injected at various concentrations over immobilized MAX bHLHZip (theoretical Rmax of 24 RU). D) Sensorgram of MAD SPR assay. MYCMI-6 was injected at various concentrations over immobilized GST-MAD bHLHZip (theoretical Rmax of 24 RU). E) Sensorgram of the BCL-XL SPR assay. MYCMI-6 was injected at various concentrations over immobilized BCL-XL (theoretical Rmax of 14 RU). F) Sensorgram of the BSA SPR assay. MYCMI-6 was injected at various concentrations over immobilized BSA (theoretical Rmax of 5 RU). Supplemental Figure S6. Expression of MYCN and MAX proteins after MYCMI-6 treatment in MYCN-amplified neuroblastoma cells. […]

Test [1] has as its target S-adenosylmethionine decarboxylase (AdoMetDC). More on the design: method as in PMID 17676832. Particulars: cited from earlier work.
The test system of another test is HDM2. More on the design: method as in PMID 19202599. Particulars: cited from earlier work.

MAX bHLHZip, sequence (P61244 23-102 limits assumed): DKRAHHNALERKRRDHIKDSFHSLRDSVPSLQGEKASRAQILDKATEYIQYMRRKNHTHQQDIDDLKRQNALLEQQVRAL

As for `CCOc1ccc2nc3cc(/N=N/c4ccc(N)nc4N)ccc3c(N)c2c1` [MYCMI-6], it took 3800 nM to reach half-maximal inhibition against MYCbHLHZip:MAXbHLHZip (IC50). In addition, the Kd on MYC bHLHZip (1:1 Langmuir model, four kinetic experiments, read-out: KD for MYC bHLHZip, SPR kinetic experiments, average) was 1600 ± 500 nM; at MYC bHLHZip (50% of Rmax, four equilibrium experiments, read-out: KD for MYC bHLHZip, SPR equilibrium binding plot), 1500 to 2000 nM; on MYC bHLHZip (Langmuir 1:1, constant Rmax 43 RU, read-out: KD for MYC bHLHZip, SPR, one representative kinetic experiment) it was 2500 nM. For the same compound, the kon at MYC bHLHZip (SPR, representative experiment, read-out: association rate ka) is 9290 M⁻¹ s⁻¹. Also, the koff at MYC bHLHZip (SPR, representative experiment, read-out: dissociation rate kd) is 0.0229 s⁻¹. Moreover, at MAX bHLHZip, the “binding to MAX (SPR)” value is recorded as “negligible; also recorded: did not bind to MAX”. Besides, in the test with p53 core protein, the “binding to p53 (SPR)” value is given as “negligible”. In addition, the “binding to YFP (SPR)” value in the test on YFP is given as “negligible”. In addition, in the test on MYCN and MAX proteins, the “expression of MYCN and MAX (western blot)” value is “maintaining the expression”. Also, the “IC50 for AdoMetDC relative to MYC:MAX in vitro” value in test [1] was “approximately 10 fold”. The “IC50 for HDM2 relative to MYC:MAX in vitro” value with HDM2 is “approximately 10 fold”.

(Values after publication PMC6030159 (Scientific Reports, 2018).)
